Reference: patent US10988524B2, “Modified relaxin B chain peptides and their therapeutic use” (priority 2018, dated 2021)
Non-standard residues stand in square brackets, D forms with d. Residues, ends and D or L forms follow the SMILES beside them. αMeL = CC(C)C[C@](C)(N)C(=O)O; Nle = CCCC[C@H](N)C(=O)O; Aib = CC(C)(N)C(=O)O

Tests used:
[1] = Stability in human plasma; assay type: in vitro ADME; settings: 37° C.; for Human Plasma stability % remaining, T = 0: 5 μM; for remaining at 1 h, 5 μM / remaining at 4 h, 5 μM: human plasma (sodium or lithium heparin)
Procedure: (§1) Prior to the testing of stability in plasma of a peptide batch, its purity (HPLC-UV) was determined.
(§2) Rat and Human plasma: anti-coagulant sodium or lithium heparin.
(§3) 100 μM solution of study compound in 50 mM Phosphate buffer pH 7.4.
(§4) 950 μL plasma is pre-incubated for 5 min at 37° C. 50 μL of compound stock solution is added. Final compound concentration=5 μM. Vortex and transfer 1504, plasma into an Eppendorf for each time point. The time points 0-1 and −4 h are carried out in duplicate for each species.
(§5) After incubation extract 1504, plasma with 6004, Acetonitrile containing with 1% TFA. Vortex and centrifuge 10 min at 14600 rpm. Dry 2004, supernatant under N2. Reconstitute sample in 200 μL of H2O/CH3CN 98/2+0.1% FA+50 ng/ml Labetalol and analyze using the analytical system used in solubility and stability studies.
(§6) For determination of the amount of the remaining peptide, the peak areas of the target compound at t0 and each time point […] were compared, resulting in “% remaining peptide”, following the equation
(§7) % remaining peptide=[(peak area peptide time)×100]/peak area peptide t0. The stability is expressed as “% remaining peptide”.

Stability in rat plasma = assay type: in vitro ADME; settings: 37° C.; for Rat plasma stability % remaining, T = 0: 5 μM; for remaining at 1 h, 5 μM / remaining at 4 h, 5 μM: rat plasma (sodium or lithium heparin)
Procedure: as §1, §2, §3, §4, §5, §6, §7

RXFP1 = target: T1, RXFP1 (Homo sapiens, UniProt Q9HBX9); assay: OVCAR5 cAMP assay (RXFP1 agonist activity, HTRF); settings: for Emax: OVCAR-5, read-out: cAMP assay in OVCAR 5 cells Emax, maximal intracellular cAMP relative to H2-relaxin in the same test occasion; for EC50: cAMP assay in OVCAR 5 cells EC50 (nM), OVCAR5 cells expressing endogenous RXFP1, cAMP by HTRF, 30 min at 37° C., 1 mM IBMX
T1 sequence (Q9HBX9 1-757): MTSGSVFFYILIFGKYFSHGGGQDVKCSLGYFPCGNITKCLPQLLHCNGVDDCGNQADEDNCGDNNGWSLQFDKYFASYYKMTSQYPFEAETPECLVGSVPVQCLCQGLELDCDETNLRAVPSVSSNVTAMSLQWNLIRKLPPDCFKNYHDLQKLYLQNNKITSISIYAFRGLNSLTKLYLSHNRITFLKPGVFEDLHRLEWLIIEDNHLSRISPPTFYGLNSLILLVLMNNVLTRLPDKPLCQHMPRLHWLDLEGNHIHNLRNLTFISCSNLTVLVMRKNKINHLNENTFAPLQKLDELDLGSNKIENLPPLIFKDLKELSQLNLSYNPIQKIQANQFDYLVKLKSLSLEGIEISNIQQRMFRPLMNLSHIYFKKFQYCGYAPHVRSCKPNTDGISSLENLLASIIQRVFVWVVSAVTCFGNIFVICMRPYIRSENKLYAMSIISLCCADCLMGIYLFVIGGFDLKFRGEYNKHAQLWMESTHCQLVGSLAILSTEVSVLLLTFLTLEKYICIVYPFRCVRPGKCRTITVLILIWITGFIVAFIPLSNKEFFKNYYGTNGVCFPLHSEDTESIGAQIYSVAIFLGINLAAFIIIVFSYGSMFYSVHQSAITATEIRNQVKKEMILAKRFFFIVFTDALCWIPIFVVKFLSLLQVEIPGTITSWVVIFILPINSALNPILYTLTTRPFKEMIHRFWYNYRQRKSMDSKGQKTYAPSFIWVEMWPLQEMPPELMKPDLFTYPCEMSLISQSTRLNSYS

[2] = Solubility testing of peptides in buffer; assay type: physicochemical; settings: Phosphate buffer 50 mM pH 7.4; target solubility 2.0 mg/ml; ~19 h; read-out: Solubility phosphate buffer pH 7.4

| Human Plasma stability % remaining, T = 0 [1] [%] | Rat plasma stability % remaining, T = 0 (Stability in rat plasma) [%] | Emax (RXFP1) [%] | Compound | further results |
| --- | --- | --- | --- | --- |
| 100 | 100 | 91 | CC[C@H](C)[C@H](NC(=O)[C@H](CCC(N)=O)NC(=O)[C@H](C)NC(=O)[C@H](CCCNC(=N)N)NC(=O)[C@@H](NC(=O)[C@H](CCCCN)NC(=O)[C@H](CCC(=O)O)NC(=O)[C@H](CCCNC(=N)N)NC(=O)CNC(=O)[C@H](CCC(=O)O)NC(=O)[C@H](CC(C)C)NC(C)=O)C(C)C)C(=O)NC(C)(C)C(=O)N[C@H](C(=O)N[C@@H](CCC(=O)O)C(=O)NCC(=O)N[C@@H](CCSC)C(=O)N[C@@H](CO)C(=O)N[C@@H](CCCCN)C(=O)N[C@@H](Cc1c[nH]c2ccccc12)C(=O)N[C@@H](CO)C(=O)N[C@@H](CCCCN)C(=O)N[C@@H](CCCNC(=N)N)C(=O)N[C@@H](CCCCN)C(=O)N[C@@H](CCCCN)C(N)=O)[C@@H](C)CC [compound 1] (Ac-LEGREKVRAQI[Aib]IEGMSKWSKRKK-NH2) | remaining at 1 h, 5 μM [1]: 71%; remaining at 4 h, 5 μM [1]: 55%; remaining at 1 h, 5 μM (Stability in rat plasma): 72%; remaining at 4 h, 5 μM (Stability in rat plasma): 17% |
| 100 | 100 | 99 | CC[C@H](C)[C@H](NC(=O)[C@H](CCC(N)=O)NC(=O)[C@H](C)NC(=O)[C@H](CCCNC(=N)N)NC(=O)[C@@H](NC(=O)[C@H](CCCCN)NC(=O)[C@H](CCC(=O)O)NC(=O)[C@H](CCCNC(=N)N)NC(=O)CNC(=O)[C@H](CCC(=O)O)NC(=O)[C@H](CC(C)C)NC(C)=O)C(C)C)C(=O)NC(C)(C)C(=O)NC(C)(C)C(=O)N[C@@H](CCC(=O)O)C(=O)NCC(=O)N[C@@H](CCSC)C(=O)N[C@@H](CO)C(=O)N[C@@H](CCCCN)C(=O)N[C@@H](Cc1c[nH]c2ccccc12)C(=O)N[C@@H](CO)C(=O)N[C@@H](CCCCN)C(=O)N[C@@H](CCCNC(=N)N)C(=O)N[C@@H](CCCCN)C(=O)N[C@@H](CCCCN)C(N)=O [compound 2] (Ac-LEGREKVRAQI[Aib][Aib]EGMSKWSKRKK-NH2) | remaining at 1 h, 5 μM [1]: 80%; remaining at 4 h, 5 μM [1]: 79%; remaining at 1 h, 5 μM (Stability in rat plasma): 57%; remaining at 4 h, 5 μM (Stability in rat plasma): 24% |
|  |  | 91 | CCCC[C@H](NC(=O)CNC(=O)[C@H](CCC(=O)O)NC(=O)C(C)(C)NC(=O)C(C)(C)NC(=O)[C@@H](NC(=O)[C@H](C)NC(=O)[C@H](C)NC(=O)[C@H](CCCNC(=N)N)NC(=O)[C@@H](NC(=O)[C@H](CCCCN)NC(=O)[C@H](CCC(=O)O)NC(=O)[C@H](CCCNC(=N)N)NC(=O)CNC(=O)[C@H](CCC(=O)O)NC(=O)[C@H](CC(C)C)NC(=O)[C@H](CCC(=O)O)NC(C)=O)C(C)C)[C@@H](C)CC)C(=O)N[C@@H](CO)C(=O)N[C@H](C(=O)N[C@@H](Cc1c[nH]c2ccccc12)C(=O)N[C@@H](CO)C(=O)NC(C)(C)C(=O)N[C@@H](CCCNC(=N)N)C(=O)N[C@@H](CCCCN)C(=O)N[C@@H](CCCCN)C(N)=O)[C@@H](C)O [compound 48] (Ac-ELEGREKVRAAI[Aib][Aib]EG[Nle]STWS[Aib]RKK-NH2) |  |
|  |  | 95 | CCCC[C@H](NC(=O)CNC(=O)[C@H](CCC(=O)O)NC(=O)C(C)(C)NC(=O)C(C)(C)NC(=O)[C@@H](NC(=O)[C@H](CCC(N)=O)NC(=O)[C@H](CCCNC(=N)N)NC(=O)[C@H](CCCNC(=N)N)NC(=O)[C@@H](NC(=O)[C@H](CCCCN)NC(=O)[C@H](CCC(=O)O)NC(=O)[C@H](CCCNC(=N)N)NC(=O)CNC(=O)[C@H](CCC(=O)O)NC(=O)[C@H](CC(C)C)NC(C)=O)C(C)C)[C@@H](C)CC)C(=O)N[C@@H](CO)C(=O)N[C@H](C(=O)N[C@@H](Cc1c[nH]c2ccccc12)C(=O)N[C@@H](CO)C(=O)NC(C)(C)C(=O)N[C@@H](CCCNC(=N)N)C(=O)N[C@@H](CCCCN)C(=O)N[C@@H](CCCCN)C(N)=O)[C@@H](C)O [compound 49] (Ac-LEGREKVRRQI[Aib][Aib]EG[Nle]STWS[Aib]RKK-NH2) | solubility [2]: ≥ 2500 µg/mL |
|  |  | 90 | CCCC[C@H](NC(=O)CNC(=O)[C@H](CCC(=O)O)NC(=O)C(C)(C)NC(=O)C(C)(C)NC(=O)[C@@H](NC(=O)[C@H](CCC(N)=O)NC(=O)[C@H](C)NC(=O)[C@H](CCCNC(=N)N)NC(=O)[C@@H](NC(=O)[C@H](CCCCN)NC(=O)[C@H](CCC(=O)O)NC(=O)[C@H](CCCNC(=N)N)NC(=O)CNC(=O)[C@H](CCC(=O)O)NC(=O)[C@H](CC(C)C)NC(C)=O)C(C)C)[C@@H](C)CC)C(=O)N[C@@H](CO)C(=O)N[C@H](C(=O)N[C@@H](Cc1c[nH]c2ccccc12)C(=O)N[C@@H](CO)C(=O)NC(C)(C)C(=O)N[C@@H](CCCNC(=N)N)C(=O)N[C@@H](CCCNC(=N)N)C(=O)N[C@@H](CCCNC(=N)N)C(N)=O)[C@@H](C)O [compound 50] (Ac-LEGREKVRAQI[Aib][Aib]EG[Nle]STWS[Aib]RRR-NH2) | solubility [2]: ≥ 2300 µg/mL; EC50 (RXFP1): ≤ 5 nM |
|  |  | 98 | CCCC[C@H](NC(=O)CNC(=O)[C@H](CCC(=O)O)NC(=O)C(C)(C)NC(=O)C(C)(C)NC(=O)[C@@H](NC(=O)[C@H](CCC(N)=O)NC(=O)[C@H](C)NC(=O)[C@H](CCCNC(=N)N)NC(=O)[C@@H](NC(=O)[C@H](CCCCN)NC(=O)[C@H](CCC(=O)O)NC(=O)[C@H](CCCNC(=N)N)NC(=O)CNC(=O)[C@H](CCC(=O)O)NC(=O)[C@H](CC(C)C)NC(C)=O)C(C)C)[C@@H](C)CC)C(=O)N[C@@H](CO)C(=O)N[C@H](C(=O)N[C@@H](Cc1ccccc1)C(=O)N[C@@H](CO)C(=O)NC(C)(C)C(=O)N[C@@H](CCCNC(=N)N)C(=O)N[C@@H](CCCCN)C(=O)N[C@@H](CCCCN)C(N)=O)[C@@H](C)O [compound 51] (Ac-LEGREKVRAQI[Aib][Aib]EG[Nle]STFS[Aib]RKK-NH2) | solubility [2]: ≥ 2400 µg/mL |
|  |  | 95 | CCCC[C@H](NC(=O)CNC(=O)[C@H](CCC(=O)O)NC(=O)C(C)(C)NC(=O)C(C)(C)NC(=O)[C@@H](NC(=O)[C@H](CCCCNC(C)=O)NC(=O)[C@H](C)NC(=O)[C@H](CCCNC(=N)N)NC(=O)[C@@H](NC(=O)[C@H](CCCCN)NC(=O)[C@H](CCC(=O)O)NC(=O)[C@H](CCCNC(=N)N)NC(=O)CNC(=O)[C@H](CCC(=O)O)NC(=O)[C@](C)(CC(C)C)NC(C)=O)C(C)C)[C@@H](C)CC)C(=O)N[C@@H](CO)C(=O)N[C@H](C(=O)N[C@@H](Cc1c[nH]c2ccccc12)C(=O)N[C@@H](CO)C(=O)NC(C)(C)C(=O)N[C@@H](CCCNC(=N)N)C(=O)N[C@@H](CCCCN)C(=O)N[C@@H](CCCCNC(C)=O)C(N)=O)[C@@H](C)O [compound 56] (Ac-[αMeL]EGREKVRAK(Ac)I[Aib][Aib]EG[Nle]STWS[Aib]RKK(Ac)-NH2) |  |
|  |  | 91 | CC[C@H](C)[C@H](NC(=O)[C@H](CCC(N)=O)NC(=O)[C@H](C)NC(=O)[C@H](CCCNC(=N)N)NC(=O)[C@@H](NC(=O)[C@H](CCCCN)NC(=O)[C@H](CCC(=O)O)NC(=O)[C@H](CCCNC(=N)N)NC(=O)CNC(=O)[C@H](CCC(=O)O)NC(=O)[C@H](CC(C)C)NC(C)=O)C(C)C)C(=O)NC(C)(C)C(=O)NC(C)(C)C(=O)N[C@@H](CCC(=O)O)C(=O)NCC(=O)N[C@@H](CCC(N)=O)C(=O)N[C@@H](CO)C(=O)N[C@H](C(=O)N[C@@H](Cc1ccccc1)C(=O)N[C@@H](CO)C(=O)NC(C)(C)C(=O)N[C@@H](CCCNC(=N)N)C(=O)N[C@@H](CCCCN)C(=O)N[C@@H](CCCCN)C(N)=O)[C@@H](C)O [compound 57] (Ac-LEGREKVRAQI[Aib][Aib]EGQSTFS[Aib]RKK-NH2) | EC50 (RXFP1): 24.4 nM |
| 100 | 100 |  | Ac-VIKLSGRELVRAQIAISGMSTWSKKKK-NH2 [KKKK(AcB7-29 C11.23S), reference compound] |  |
| 100 | 100 |  | Ac-VIKLSGRELVRAQIAISGMSTWSKRSL-NH2 [AcB7-33 C11.23S, reference compound] |  |
| 100 | 100 |  | H-VIKLSGRELVRAQIAISGMSTWSKRSL-NH2 [B7-33 C11.23S, reference compound] |  |
